From patent EP4497440A1, “USE OF 7-TRIFLUOROMETHYL-7ALPHA,25-DIHYDROXYCHOLESTEROL IN THE TREATMENT AND MODULATION OF AUTOIMMUNE AND INFLAMMATORY DISEASES OF THE NERVOUS SYSTEM AND NEURODEGENERATIVE DISEASES” (Gdanski Uniwersytet Medyczny, priority 2023, dated 2025)
“Also recorded” adds a separate entry of the source.

Legend:
[1] = system: mouse organotypic cerebellar slices; assay: Remyelination of organotypic cerebellar slices after LPC demyelination (Mbp mRNA by quantitative PCR); type: cell-based; settings: LPC 0.4 mg/ml, then treatment in serum-free culture medium for 14-16 days; barbadin 16 µM, 7α,25OHC 0.1 µM, NIBR189 10 µM; concentration of CF3-7α,25OHC not given; vs untreated LPC slices
Experimental: (§1) Organotypic cerebellar slices were sampled from ten-day old mice and then grown in an incubator for 14 days. After 14 days the myelin was chemically removed with LPC (0.4 mg/ml). Following the removal of the myelin sheaths, the slices were treated with: • 1. the control group: regular culture medium, without LPC • 2. LPC, then on serum-free culture medium for 14-16 days • 3. LPC followed by barbadin 16 µM in serum-free culture medium for 14-16 days • 4. LPC followed by 7α,25OHC 0.1 µM in serum-free culture medium for 14-16 days • 5. LPC followed by NIBR189 10 µM in serum-free culture medium for 14-16 days • 6. LPC followed by barbadin 16 µM + 7α,25OHC 0.1 µM in serum-free culture medium for 14-16 days
Once the experiment was completed (remyelination for 14-16 days) the slices were collected and MBP mRNA levels were measured by the PCR quantitative method. In the mouse organotypic cerebellar slices in which myelin sheaths were chemically removed with lysophosphatidylcholine (LPC) spontaneous myelin regeneration took place except for the slices treated with a selective EBI2 receptor antagonist (NIBR189). The results once again reveal key significance of EBI2 intracellular signalling for myelin regeneration. […] Barbadin, which inhibits internalisation of the EBI2 receptor, is necessary to achieve the therapeutic effect (faster remyelination) in the case of non-modified oxysterol (Fig 1 and Fig 2a).

[2] = system: Ebi2 receptor; assay: Ebi2 mRNA level in organotypic cerebellar slices; type: cell-based, mouse; settings: slices first treated with LPC and then with 7α,25OHC
Experimental: as §1
(§2) Measurement of the mRNA level of the Ebi2 receptor and of the enzymes synthesizing (Ch25h, Cyp7b1) and degrading (Hsd3b7) the natural ligand 7α,25OHC in organotypic cerebellar slices treated with non-modified oxysterol 7α,25OHC (Fig 5) (tissue and treatments as in Fig 1 and Fig 2a) and in cerebella of the mice subject to the cuprizone model, treated with modified oxysterol CF3-7α,25OHC (Fig 6). LPC treatment modulates enzymes which synthesise and degrade the natural oxysterol 7α,25OHC.

[3] = system: Ch25h; assay: mRNA level of oxysterol-synthesizing enzyme in organotypic cerebellar slices; type: cell-based, mouse; settings: slices first treated with LPC and then with 7α,25OHC
Experimental: as §1, §2

[4] = mice, subcutaneous or intraperitoneal injection, elimination from blood; cited from earlier work
[5] = system: white blood cells; assay: Cuprizone model: blood morphology (white blood cell counts); type: in vivo, mice; settings: after 14 days of treatment in the cuprizone model; CF3-7α,25OHC 20 mg/kg s.c., barbadin 0.3 mg/kg i.p.; compared to vehicle group #3
Experimental: C (Fig 7) or #3 (Fig 8 and 9) vehicle control group - the mice were fed with chow containing cuprizone for 9 weeks, and then with regular chow without cuprizone for another 2 weeks. Over the 2 weeks on regular chow the mice in the vehicle control group were first injected vehicle #1: DMSO (intraperitoneal injection), 150 µl once a day, and then vehicle #2: canola oil, subcutaneously, 150 µl once a day.
#4 (Fig 8 and 9) barbadin control group - the mice were fed with chow containing cuprizone for 9 weeks, and then with regular chow without cuprizone for another 2 weeks. Over the 2 weeks on regular chow the mice in the group were injected barbadin 0.3 mg/kg, intraperitoneally, 150 µl once a day, and then vehicle #2: canola oil, subcutaneously, 150 µl once a day.
E (Fig 7) or #5 experimental group with oxysterol CF3-7α,25OHC - the mice were fed with chow containing cuprizone for 9 weeks, and then with regular chow without cuprizone for another 2 weeks. Over the 2 weeks on regular chow the mice in the group were injected vehicle #1: DMSO, intraperitoneally, 150 µl once a day, and CF3-7α,25OHC, dose: 20 mg/kg, subcutaneously, 150 µl once a day.
#6 (Fig 8 and 9) experimental group with barbadin + oxysterol CF3-7α,25OHC - the mice were fed with chow containing cuprizone for 9 weeks, and then with regular chow without cuprizone for another 2 weeks. Over the 2 weeks on regular chow the mice in the group were injected barbadin, 0.3 mg/kg, intraperitoneally, 150 µl once a day, and then one hour following the barbadin injection they were injected CF3-7α,25OHC, dose: 20 mg/kg, subcutaneously, 150 µl once a day.
The blood from the heart was sampled after the mice had been euthanised, and blood morphology test was performed using a standard diagnostic analyser. […] The lymphocyte count in peripheral blood of the mice which had been injected with CF3-7α,25OHC was lower by 50% compared to the control group of mice injected with vehicles (gr. #3 or C). The specific action of CF3-7α,25OHC leading to reduction of the lymphocyte count in blood finds confirmation in the results obtained for the mice of groups #4 (or D) and #6 (or F). Compared to the control group, the lymphocyte count in blood in the group of mice injected with barbadin (#4 or D) was lower only by 21%, and in the group of mice injected with barbadin + CF3-7α,25OHC by 7%. Following interaction with CF3-7α,25OHC, barbadin blocks internalisation of the EBI2 receptor from the cell membrane. The absence of any significant effect related to the treatment with barbadin or barbadin + CF3-7α,25OHC indicates a specific action of CF3-7α,25OHC on the EBI2 receptor and the consequential effects of that action, namely reduction of the count of circulating lymphocytes in blood. Moreover, the number of monocytes in group #5 (or E: mice treated with CF3-7α,25OHC) was lower by as much as 66% and the total leukocyte count (lymphocytes and monocytes included) was also substantially lower (by 51%), though only in the group of mice injected with CF3-7α,25OHC. In our subsequent in vivo tests (short-term pharmacology) we confirmed the action of CF3-7α,25OHC. In that test, too, it reduced the count of white blood cells. CF3-7α,25OHC reduces the lymphocyte count as early as following the 4 mg/kg dose and the effect lasts for 24 hours following administration.

[6] = system: pro-inflammatory cytokine IL1β; assay: Cuprizone model: IL1β mRNA in cerebellum lysates by PCR; settings: cerebellum lysates, cuprizone model; versus the group treated solely with vehicles
Description: Identifying the mRNA levels of pro-inflammatory cytokine IL1β in mouse cerebellum lysates (Fig 11).

| SMILES | remyelination (Mbp expression) [1] | Ebi2 expression [2] | level of Ch25h [3] | half-life [4] | drop in lymphocytes (lymphocyte count in peripheral blood lower by) [5] [%] | mRNA level of IL1β went up by [6] [%] |
| --- | --- | --- | --- | --- | --- | --- |
| C[C@H](CCCC(C)(C)O)[C@H]1CC[C@H]2[C@@H]3[C@H](O)C=C4C[C@@H](O)CC[C@]4(C)[C@H]3CC[C@]12C [7α,25OHC] | do not remyelinate quicker than ones not subject to any treatment; also recorded: do not remyelinate faster than the untreated slices | reduces the expression level of receptor EBI2; also recorded: does not increase its expression; also recorded: does not increase Ebi2 expression | reduces the level of Ch25h | ca. 30 minutes | – | – |
| COc1ccc(C(=O)N2CCN(C(=O)/C=C/c3ccc(Br)cc3)CC2)cc1 [NIBR189, (2E)-3-(4-bromophenyl)-1-(4-(4-methoxybenzyoil)-1-piperazine)-2-propen-1-on] | do not remyelinate | – | – | – | – | – |
| Nn1cnc2scc(-c3ccc(Cc4ccccc4)cc3)c2c1=O [barbadin, reference compound] | – | – | – | – | 21 | 2 |
